Results published in patent US11701355B2, “Levosimendan for treating pulmonary hypertension with heart failure with preserved ejection fraction (PH-HFpEF)” (Tenax Therapeutics, Inc., priority 2019, dated 2023).
“Also recorded” adds a separate entry of the source.

Columns and labels:
PH-HFpEF patients = assay: HELP Study double-blind phase: weekly 24-hour infusions for 5 weeks vs placebo, assessment at Week 6; type: in vivo, human; conditions: for mean pulmonary arterial pressure (mPAP) / right atrial pressure (RAP) / six-minute walk test distance: Week 6, compared with placebo; for pulmonary capillary wedge pressure (PCWP): baseline vs Week 6, compared with placebo
Description: Study drug is administered via i.v. infusion over 24 hours weekly through Week 5 via a PICC line. Infusions (Week 2-5) are done in the subject's home by a study nurse. Patients return to the study site for a visit between the Week 3 and Week 4 infusions for assessment of subject safety/response and need for dose adjustment. Each subject is to return on Week 6 for assessment of efficacy and safety on study drug. A right heart catheter will be inserted to obtain hemodynamic measurements at rest and exercise at baseline, the following day after the lead-in 24-hour infusion, and during Week 6.
During the Lead-in phase of the study, a sufficient number of subjects are enrolled and receive levosimendan to identify a total of 36 ‘responders.’ The levosimendan ‘responders’ are randomized 1:1, levosimendan or placebo, for the double-blind phase of the study.
During the Double-blind phase, study drug concentrated solution (2.5 mg/mL), levosimendan or placebo, is mixed with diluent and administered via a PICC line as weekly infusions at 0.075 μg/kg/min for 24 hours. Patients undergo a dose escalation at Week 4 and 5 (0.10 μg/kg/min for 24 hours) unless there has been a meaningful change in blood pressure or heart rate. Infusion rates may be reduced to 0.05 μg/kg/min if the higher dose is not well-tolerated at any time during the initial 5 weeks.
Visits at Weeks 2, 3, 4, and 5 are performed within +/−48 hours of the scheduled visit. Visits for Weeks 2-5 are calculated based on the date of the Lead-in infusion. These visits are performed at the subject's home with the aid of the home health care nurse. The home health care nurse remains with the patient for the first 2-3 hours of the infusion to ensure patient safety. The home health care nurse visits the patient again at 24 hours to stop the infusion and assess the patient's status. During this visit, the following procedures are performed: Record any changes in procedures, prescription and non-prescription drugs, vitamins, and dietary or herbal supplements; measure vital signs prior to starting the infusion, after the first 2 hours (+/−30 min), and after 24 hours (+/−30 min); assess adverse events and study drug administration. At Week 5, all patients are given a new cardiac monitoring sensor to wear on their chest to measure cardiac rhythm, as was done during Screening. The patch is applied prior to (<1 hour) the 24-hour infusion, remain monitoring the patient for a minimum of 72 hours and returned to the investigational site at the Week 6 visit.
Visits at Week 6 should be performed 3-6 days following completion of the Week 5 infusion. During this visit, the following procedures are performed: record any changes in procedures, prescription and non-prescription drugs, vitamins, and dietary or herbal supplements; measure vital signs (BP, PR, respiratory rate, temperature); hematology and clinical chemistry blood samples; conduct 12-lead ECG; echocardiogram within +/−72 hours of the Week 6 visit; right heart catheterization at rest and with exercise; QOL assessment; Child-Pugh Class, NYHA Functional Class, assess adverse events, 6 minute walk test; and pharmacokinetic sampling (sample to be taken prior to enrollment in Open-Label phase.
The 6-minute walk test (6MWT) is performed at approximately the same time of day at each study visit after the Baseline Visit and ideally, one of the first assessments to be performed. The ECHO and subject questionnaire are performed after the 6MWT has been completed. The 6MWT is performed using the methods described in the American Thoracic Society (ATS) Statement: Guidelines for the Six-Minute Walk Test. The test is performed at approximately the same time of day when assessed and by the same evaluator whenever possible.

[1] = system: phosphodiesterase-3 (PDE3); conditions: in vitro; cited from earlier work
[2] = system: patients afflicted with pulmonary hypertension; conditions: chronic dosing over an 8-week period; cited from earlier work
[3] = chronic (weekly for 5 weeks) administration, week 6
[4] = weekly 24-hour infusions, listed as Levosimendan
[5] = weekly 24-hour infusions, compared with placebo

With `C[C@@H]1CC(=O)NN=C1c1ccc(NN=C(C#N)C#N)cc1` [levosimendan, Levosimendan] as the compound, how does the “Cardiac Index (CI)” value (PH-HFpEF patients; [3]) read?
Its value is “unchanged at week 6”.

And the “pulmonary vascular resistance (PVR)” value (PH-HFpEF patients; [3])?
Its value is “unchanged at week 6”.

And the “pulmonary vascular resistance (PVR)” value (PH-HFpEF patients; chronic (weekly for 5 weeks) administration, week 6, listed as Levosimendan)?
The value was “did not decrease”.

What about the safety and tolerability (PH-HFpEF patients; weekly 24-hour dosing) of the same compound?
Its safety and tolerability is “safe and well tolerated”.

What about the “mean pulmonary arterial pressure (mPAP)” value (PH-HFpEF patients; weekly 24-hour infusions) of the same compound?
The value was “significantly greater reduction; also recorded: decrease”.

What about the “right atrial pressure (RAP)” value (PH-HFpEF patients; weekly 24-hour infusions) of the same compound?
Its value is “decrease; also recorded: significantly greater reduction”.

What about the “six-minute walk test distance” value (PH-HFpEF patients; weekly 24-hour infusions) of the same compound?
Its value is “significantly increased; also recorded: increase; also recorded: statistically significant improvement”.

And the “mean pulmonary arterial pressure (mPAP)” value (PH-HFpEF patients; [4])?
Its value is “reduces”.

And the “right atrial pressure (RAP)” value (PH-HFpEF patients; [4])?
The value was “improves”.

And the “six-minute walk test distance” value (PH-HFpEF patients; [4])?
Its value is “improves”.

And the “pulmonary capillary wedge pressure (PCWP)” value (PH-HFpEF patients; weekly 24-hour infusions)?
The value was “significant vs placebo; also recorded: greater decrease”.

And the “pulmonary capillary wedge pressure (PCWP)” value (PH-HFpEF patients; [4])?
Its value is “improves”.

What about the cardiac output (PH-HFpEF patients; [5]) of the same compound?
Its cardiac output is “significantly greater increase”.

And the “proportion of subjects with an improved sense of well-being” value (PH-HFpEF patients; [5])?
The value was “significantly higher proportion”.

And the PDE3/PDE4 inhibition ratio [1]?
The PDE3/PDE4 inhibition ratio was 10,000.

And the efficacy [2]?
Its efficacy is “failed to show efficacy”.
